The results in this text go back to patent US20080145439A1, “NA[…] FORMULATIONS” (NEUROSYSTEC CORPORATION, priority 2006, published 2008).

A value given as a limit tells only on which side of the number the result lay.

Common to all, as to type: physicochemical
Series [1] is described as follows: Thermal decomposition / stability of gacyclidine in solution. Particulars: for decomposition rate: 54° C.; for Time for 10% Loss: Ringer's Lactate.
Series [2] is described as follows: Water solubility of gacyclidine forms. An excerpt: (§1) However, in polymeric containers or in the presence of excess precipitated drug, the apparent pKA is perturbed to lower values due to interaction of the basic form of the drug with polymeric surfaces or its own insoluble precipitate. In the conjugate acid form, gacyclidine is extremely water soluble. Solutions of greater than 1 molar (M) concentration can be prepared from the hydrochloride salt. However, solutions of the acid form of the drug are thermally unstable and subject to acid-catalyzed decomposition to give stoichiometric piperidine (1 mole per mole of drug lost) and multiple other organic products.

The nature of series [3]: Apparent pKA of gacyclidine in aqueous solution.
Excerpt: as §1

Series [4] in a line: Binding (loss) of gacyclidine to silicone. The conditions noted are these: room temperature, pH 6, 100 μM gacyclidine solution; depends on time and temperature of exposure. An excerpt: Delivery of gacyclidine in such a manner presents numerous challenges, however. Various characteristics of gacyclidine are discussed in more detail below. […] Specifically, catheters, drug reservoirs, pumps, anti-bacterial filters and other components of drug delivery systems are typically fabricated from polymers approved for human implantation.

In turn, `C[C@H]1CCCC[C@@]1(c1cccs1)N1CCCCC1.Cl` [Gacyclidine Hydrochloride Salt, Gacyclidine] displayed a decomposition rate in series [1] (10 mM HCl) of 0.52 day⁻¹. The “Time for 10% Loss” value is 3.7 ± 0.1 days in series [1] (37° C., pH 5.5); 3.82 ± 0.03 days in series [1] (37° C., pH 6.0); 6.1 ± 0.4 days in series [1] (37° C., pH 7.4); 6.1 days in series [1] (37° C., pH 7.4, listed as gacyclidine in the hydrochloride salt form). For the same molecule, the “time required for 10% loss” value in series [1] (37° C., slightly acidic conditions) turned out to be 3.8 days. The figures for the “solubility in water (concentration of clear solution)” value in series [2] and in series [2] (listed as hydrochloride salt of gacyclidine) were “greater than 1 M” and more than 1000 mM, respectively.
In the case of `CC1CCCCC1(c1cccs1)N1CCCCC1` (centres unmarked) [Gacyclidine], in series [3], the “temperature dependence of apparent pKA” value is given as −0.016 ΔpKA/° C. In series [3] (37° C., 1 mM gacyclidine), the “apparent pKA in glass vials higher than in polypropylene” value is “about 0.7 pH units”. Moreover, the “apparent pKA” value in series [3] (room temperature, glass containers) worked out at 7.4. In addition, in series [3] (room temperature, 0.1 M hydrochloride salt diluted into buffered aqueous solution to 1 mM, glass or polypropylene vials), the “apparent pKA (from residual gacyclidine in solution)” value turned out to be 6.7. Also, in series [4], the “gacyclidine retained by silicone” value is listed as “up to 60%”. Moreover, the “pH above which precipitation is observed” value in series [2] (0.1 M hydrochloride salt diluted into buffered aqueous solution to 1 mM) is given as more than 7 pH.
`CC1CCCCC1(c1cccs1)N1CCCCC1` (centres unmarked) [basic form of gacyclidine, Gacyclidine] showed a decomposition rate in series [1] (1 mM NaOH) of 0.0013 day⁻¹. Moreover, in series [1] (from decomposition rates at 54° C.), the “stability relative to the conjugate acid form” value was 200-400 times. Moreover, the solubility in water in series [2] (above pH 9) was less than 0.002 mM.
